SMILES strings stand for the structures.

Data set [1] is described as follows: in vitro. To be noted: human, Caco-2.
A short description of data set [2]: in vivo. To be noted: CD-1, mouse, po, 10 mg/kg.
Data set [3] in a line: in vivo. The following applies: CD-1, mouse, po, 10 mg/kg. This is another data set of the same source.
Data set [4] is described as follows: in vivo. The following applies: CD-1, mouse, po, 10 mg/kg. The source holds these as a separate data set.
Data set [5] is described as follows: in vitro. To be noted: mouse, hepatocytes.
The nature of data set [6]: AUC(0 to t) in collagen-induced arthritis mouse at 50 mg/kg, po measured at day 9. The following applies: in vivo. Type of data set: ADME, organism-based. Also noted: time 9 day, dose 50 mg/kg, route po.
Data set [7] is described as follows: Lipophilicity, logD of the compound at pH 7.4. Type of data set: physicochemical. The following applies: buffer.
Data set [8] in a line: Cmax in collagen-induced arthritis mouse at 50 mg/kg, po measured at day 2. Type of data set: ADME, organism-based. Also noted: dose 50 mg/kg, time 2 day, route po. To be noted: in vivo.
The nature of data set [9]: Dose normalized AUC(0 to t) in collagen-induced arthritis mouse at 10 mg/kg, po measured at day 19. Type of data set: ADME, organism-based. The following applies: in vivo, 456 h, time 19 day.
Data set [10] is described as follows: Cmax in collagen-induced arthritis mouse at 10 mg/kg, po measured at day 9. Type of data set: ADME, organism-based. Also on record: time 9 day, dose 10 mg/kg, route po. To be noted: in vivo.
Data set [11] can be described thus: Cmax in collagen-induced arthritis mouse at 10 mg/kg, po measured at day 2. Type of data set: ADME, organism-based. Also noted: dose 10 mg/kg, time 2 day, route po. The following applies: in vivo.
Data set [12] is described as follows: Cmax in collagen-induced arthritis mouse at 50 mg/kg, po measured at day 9. Type of data set: ADME, organism-based. Also noted: dose 50 mg/kg, time 9 day, route po. To be noted: in vivo.
The nature of data set [13]: AUC(0 to t) in collagen-induced arthritis mouse at 50 mg/kg, po measured at day 2. Also noted: dose 50 mg/kg, time 2 day, route po. The following applies: in vivo. Type of data set: ADME, organism-based.
A short description of data set [14]: Cmax in collagen-induced arthritis mouse at 10 mg/kg, po measured at day 19. Type of data set: ADME, organism-based. Also on record: dose 10 mg/kg, time 19 day, route po. To be noted: in vivo.
Data set [15] is described as follows: AUC(0 to t) in collagen-induced arthritis mouse at 10 mg/kg, po measured at day 19. Type of data set: ADME, organism-based. Also on record: dose 10 mg/kg, time 19 day, route po. To be noted: in vivo.
Data set [16] is described as follows: physchem.
The nature of data set [17]: Dose normalized AUC(0 to t) in collagen-induced arthritis mouse at 50 mg/kg, po measured at day 9. Type of data set: ADME, organism-based. The following applies: in vivo, 216 h, time 9 day.
Data set [18] is described as follows: Dose normalized AUC(0 to t) in collagen-induced arthritis mouse at 50 mg/kg, po measured at day 19. Type of data set: ADME, organism-based. The following applies: in vivo, 456 h, time 19 day.
Data set [19] can be described thus: Cmax in collagen-induced arthritis mouse at 50 mg/kg, po measured at day 19. Type of data set: ADME, organism-based. Also noted: dose 50 mg/kg, time 19 day, route po. To be noted: in vivo.
The nature of data set [20]: Dose normalized AUC(0 to t) in collagen-induced arthritis mouse at 10 mg/kg, po measured at day 2. The following applies: in vivo, 48 h, time 2 day. Type of data set: ADME, organism-based.
Data set [21] is described as follows: AUC(0 to t) in collagen-induced arthritis mouse at 10 mg/kg, po measured at day 2. Type of data set: ADME, organism-based. Also noted: time 2 day, dose 10 mg/kg, route po. To be noted: in vivo.
Data set [22] in a line: AUC(0 to t) in collagen-induced arthritis mouse at 10 mg/kg, po measured at day 9. The following applies: in vivo. Type of data set: ADME, organism-based. Also on record: time 9 day, dose 10 mg/kg, route po.
Data set [23] can be described thus: Dose normalized AUC(0 to t) in collagen-induced arthritis mouse at 10 mg/kg, po measured at day 9. Type of data set: ADME, organism-based. The following applies: in vivo, 216 h, time 9 day.
Data set [24] can be described thus: AUC(0 to t) in collagen-induced arthritis mouse at 50 mg/kg, po measured at day 19. Type of data set: ADME, organism-based. Also on record: dose 50 mg/kg, time 19 day, route po. The following applies: in vivo.
Data set [25] in a line: Dose normalized AUC(0 to t) in collagen-induced arthritis mouse at 50 mg/kg, po measured at day 2. Type of data set: ADME, organism-based. To be noted: in vivo, 48 h, time 2 day.

As to `CC(C)(C(=O)Nc1ccc(-c2cncc(C(F)(F)F)n2)cc1F)c1csc(NS(=O)(=O)C2CC2)n1`, the Papp A→B at 2 h, 10 µM in [1] was 9.9 ×10⁻⁶ cm/s. The bioavailability in data set [2] turned out to be 95%. In addition, in data set [3], the AUC(0-t) turned out to be 56.1 µM·h. In [4], this compound registered a Cmax of 11.1 µM. Moreover, the hepatocyte CLint at 1 h, 1 µM in data set [5] is less than 1 µL/min/1e6 cells.

On to `CC(C)(C(=O)Nc1ccc(-c2cncc(C(F)(F)F)n2)cn1)c1csc(NS(=O)(=O)C2CC2)n1`, for which the AUC(0-t) at 216 h worked out at 29400 ng·h/mL in [6] and 11900 ng·h/mL in [22]. Also, in data set [7], the logD was 2.46. Besides, the Papp A→B at 2 h, 10 µM in data set [1] was 7.1 ×10⁻⁶ cm/s. Also, the Cmax worked out at 7830 ng/mL in data set [8]; 5.3 µM in data set [4]; 3360 ng/mL in data set [10]; 4770 ng/mL in [11]; 6390 ng/mL in data set [12]; 3570 ng/mL in data set [14]. This compound also came in with a Cmax in [19] of 13000 ng/mL. The compound further had an exposure AUC(0-t) in data set [3] of 25.3 µM·h. Further, the AUCt/dose was found to be 1049 ng·h/mL in data set [9]; 587 ng·h/mL in data set [17]; 1052 ng·h/mL in [18]; 1503 ng·h/mL in [20]; 1188 ng·h/mL in data set [23]; 873 ng·h/mL in data set [25]. The AUC(0-t) at 48 h in data set [13] came out at 43700 ng·h/mL; in data set [21], 15000 ng·h/mL. In addition, the AUC(0-t) at 456 h in [15] is 10500 ng·h/mL; in data set [24], 52600 ng·h/mL. The pKa in data set [16] is 6.26. The compound also gave a hepatocyte CLint at 1 h, 1 µM in [5] of 8 µL/min/1e6 cells.

As for `CCCOc1ccc(NC(=O)C(C)(C)c2csc(NS(=O)(=O)C3CC3)n2)cc1`, in [2], the bioavailability came to 35%. This compound also showed an AUC(0-t) in data set [3] of 2.34 µM·h. The compound also registered a Cmax in data set [4] of 0.9 µM. For the same compound, the hepatocyte CLint at 1 h, 1 µM in data set [5] came to 32 µL/min/1e6 cells.

Take `CS(=O)(=O)Nc1nc(CC(=O)Nc2cccc(Cl)c2)cs1`: the pKa in [16] turned out to be 6.58.

For orientation: Papp A→B means the apparent permeability from the apical to the basolateral side of a cell layer. A lower Papp A→B goes with slow passage. By bioavailability is commonly meant the share of a dose that reaches the circulation, judged against a reference dose that is usually intravenous. The AUC(0-t) is exposure summed from dosing to a finite time, without extrapolation to infinity. What is called Cmax is the maximum level reached in the sampled fluid or tissue. Usually hepatocyte CLint stands for a measure of how fast metabolising enzymes remove a compound, apart from limits set by blood flow. The logD is lipophilicity at a set pH, counting ionised and neutral species. Higher therefore signals higher lipophilicity. The term pKa denotes the pH at which an ionisable group is half protonated. High values mean a weaker acid or stronger base, low ones a stronger acid or weaker base.

(Values after ChEMBL document CHEMBL5236608, “Discovery and Optimization of Potent and Orally Available CTP Synthetase Inhibitors for Use in Treatment of Diseases Driven by Aberrant Immune Cell Proliferation” (J Med Chem, 2022).)
